# Where two headings read alike, the source gives them in different places.
# How the values were obtained:
# [1] = test system: second-instar larvae of tobacco cutworm; test: whole plant or invertebrate; format: in vivo; conditions: foliar
# Protocol: To a mixture of 20 parts of the compound of the present invention and 20 parts of Sorpol SM-200 (registered trademark for the product supplied by Toho Chemical Industrial Co., Ltd.) was added 60 parts of xylol, and the mixture was sufficiently blended. The obtained emulsifiable concentrate was diluted at a predetermined concentration with distilled water, and the obtained dilution was used.
# An emulsifiable concentrate of a test compound prepared according to the method described in Formulation Example 1 was diluted to a concentration of 100 or 20 ppm. Among the compounds of the present invention, the following compounds were used as the test compounds: (1), (l ), (3), (4), (6), (8), (9), (10), (11), (14), (15), (16), (17), (18), (19), (20), (21), (24), (27), (28), (29), (30), (33), (34), (35), (36), (38), (39), (40), (41), (42), (43), (47), (48), (50), (51), (52), (53), (54), (55), (56), (59), (60), (62), (63), (64), (65), (66), (67) and (68). Sweetpotato leaves were immersed in the dilution for 10 seconds, air-dried and placed in a plastic cup having a diameter of 10 cm. Then second-instar larvae of tobacco cutworm were set free in the cup. The cup was allowed to stand still in a thermostat chamber maintained at 25° C. After 48 hours, the numbers of killed and living larvae were counted and the mortality was calculated. The obtained result was expressed by an average value obtained from the mortality calculated in three test cups. Compounds of (b), (f) and (h) were tested as comparative compounds in the same manner as the compounds of the present invention.
# [2] = test system: third-instar larvae of diamond back moth; test: Test 4: Effect on Diamond Back Moth; format: in vivo; conditions: Plutella xylostella, 24 hours
# Outline: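 Emulsifiable concentrate diluted in water to 100 or 20 ppm and sprayed at 3 ml per cup onto cabbage leaves holding 10 third-instar diamondback moth larvae. Dead and living larvae counted after 24 h; mortality averaged over three cups.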
# two-spotted spider mite = test: Test 6: Effect on Two-Spotted Spider mite adults; format: in vivo; conditions: 500 ppm, adults, 24 hours
# Outline: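 Kidney bean leaf discs (15 mm) on wet cotton, each holding 10 adult mites, sprayed with 3 ml of a 500 ppm dilution of an emulsifiable concentrate. Kept at 25° C; dead adults counted after 24 hours to give mortality, averaged over three discs.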
# [3] = test system: resistant green rice leafhopper (collected at Nakagawara); test: Test 3: Effect on Resistant Green Rice Leafhopper; format: in vivo, Nephotettix cincticeps Uhler; conditions: resistant, female adults, 24 hours
# Outline: (§1)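 Rice seedlings (2–3 leaves) sprayed with emulsifiable-concentrate dilutions at 100 or 20 ppm, 3 ml per pot, air-dried, then infested with 10 female adults per pot. Mortality counted after 24 h and averaged over three pots.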
# [4] = test system: sensitive green rice leafhopper (collected at Chigasaki); test: Test 3: Effect on Sensitive Green Rice Leafhopper; format: in vivo; conditions: female adults, 24 hours
# Outline: as §1
# male mice = test: Test 9: Toxicity Test (acute oral, mice); conditions: male mice; oral, corn oil; 7 days
# Outline: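 Compound dissolved or suspended in corn oil was given orally to male mice of 19–23 g body weight, at 0.2 ml per 10 g. Deaths and effects were recorded after 7 days.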
# yearling carps = test: Test 8: Fish Toxicity; format: in vivo; conditions: 48 hours, concentration at which 1/2 of the test fishes were killed
# Protocol: A water tank having a width of 60 cm, a length of 30 cm and a height of 40 cm was filled with water, and 10 yearling carps having a body length of about 5 cm were set free in the tank and adapted to the environment in the tank. A test compound was applied so that the concentration in water was 10, 1, or 0.1 ppm. After 48 hours, the numbers of killed and living carps were counted and the influences on the fishes were examined.
# [5] = 20 ppm, second-instar larvae, 48 hours, read-out: Mortality (%)
compound,measurement,setting,value
"CC(C)C(COCc1cccc(Oc2ccccc2)c1)c1ccc(Cl)cc1 (stereo not shown) [(b), reference compound]",mortality at 100 ppm,[1]; 48 h,50%
same,mortality at 20 ppm,[1]; [5],0%
same,mortality at 20 ppm,[2]; 20 ppm,10%
same,mortality at 100 ppm,[2]; 100 ppm,30%
same,mortality at 500 ppm,"two-spotted spider mite; Tetranychus urticae, read-out: Mortality (%)",20%
"Pyrethrin [Comparative Compound (c), reference compound]",Mortality (%) Green Rice Leafhopper Collected at Nakagawara,[3]; 20 ppm,0%
same,Mortality (%) Green Rice Leafhopper Collected at Nakagawara,[3]; 100 ppm,0%
same,Mortality (%) Green Rice Leafhopper Collected at Chigasaki,[4]; 20 ppm,0%
same,Mortality (%) Green Rice Leafhopper Collected at Chigasaki,[4]; 100 ppm,0%
same,Mortality (%),two-spotted spider mite,0%
same,"Acute Toxicity at Oral Administration, LD-50",male mice,340 mg/kg
"3-phenoxy-α-cyanobenzyl 2,2-dimethyl-3-(2,2-dichlorovinyl)-cyclopropano-1-carboxylate [(i), reference compound]","Fish Toxicity, TLm48",yearling carps,below 0.005 ppm
"CNC(=O)ON=C(C)SC [Comparative Compound (f), S-methyl N-(methylcarbamoyloxy)thioacetoamidate]",mortality at 20 ppm,[1]; [5],80%
same,mortality at 100 ppm,"[1]; 100 ppm, second-instar larvae, 48 hours, read-out: Mortality (%)",100%
"COP(=O)(NC(C)=O)SC (stereo not shown) [(h), O,S-dimethyl N-acetylphosphoroamidothiolate]",mortality at 20 ppm,[1]; 48 h,30%
same,mortality at 100 ppm,[1]; 48 h,70%
